Literature values as cited in US11459445B2, “Composition and molded body” (SUMITOMO CHEMICAL COMPANY, LIMITED, priority 2018, dated 2022).

System: C. violaceum CV026
Settings: N-hexanoyl homoserine lactone added; compared with no caffeine; Sensors 2013, 13, 5117-5129

Cn1c(=O)c2c(ncn2C)n(C)c1=O [caffeine]
amount of violet pigment (violacein) produced: smaller
